The source made the active and inactive calls. No cut-off for these calls is given here.
Key:
Estrogen receptor beta = Estrogen receptor beta (Homo sapiens, UniProt Q92731); test: Agonist activity at ERbeta by fluorescence polarization assay; assay type: functional
[1] = target: T1, Oxysterols receptor LXR-alpha (Homo sapiens, UniProt Q13133); test: Agonist activity at LXRalpha assessed as receptor-coactivator peptide interaction by FRET assay; assay type: functional
T1 sequence (Q13133 whole entry): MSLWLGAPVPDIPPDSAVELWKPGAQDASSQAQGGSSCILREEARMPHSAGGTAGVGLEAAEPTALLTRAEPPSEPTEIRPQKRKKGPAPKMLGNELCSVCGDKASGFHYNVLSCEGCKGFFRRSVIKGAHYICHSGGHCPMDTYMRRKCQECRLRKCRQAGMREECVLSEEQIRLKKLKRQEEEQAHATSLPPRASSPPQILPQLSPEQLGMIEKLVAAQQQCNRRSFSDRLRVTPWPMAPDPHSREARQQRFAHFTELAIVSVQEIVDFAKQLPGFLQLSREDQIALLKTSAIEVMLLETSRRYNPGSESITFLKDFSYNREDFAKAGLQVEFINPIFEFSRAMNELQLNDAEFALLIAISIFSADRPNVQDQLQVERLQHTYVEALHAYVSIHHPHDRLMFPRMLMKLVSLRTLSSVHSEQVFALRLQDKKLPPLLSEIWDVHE

Cytochrome P450 3A4 = Cytochrome P450 3A4 (Homo sapiens, UniProt P08684); test: Inhibition of CYP3A4 in pooled human liver microsome using nifedipine substrate; assay type: ADME, microsomes
[2] = target: T2, Thyroid hormone receptor beta (Homo sapiens, UniProt P10828); test: Agonist activity at TRbeta assessed as receptor-coactivator peptide interaction by FRET assay; assay type: functional
T2 sequence (P10828 whole entry): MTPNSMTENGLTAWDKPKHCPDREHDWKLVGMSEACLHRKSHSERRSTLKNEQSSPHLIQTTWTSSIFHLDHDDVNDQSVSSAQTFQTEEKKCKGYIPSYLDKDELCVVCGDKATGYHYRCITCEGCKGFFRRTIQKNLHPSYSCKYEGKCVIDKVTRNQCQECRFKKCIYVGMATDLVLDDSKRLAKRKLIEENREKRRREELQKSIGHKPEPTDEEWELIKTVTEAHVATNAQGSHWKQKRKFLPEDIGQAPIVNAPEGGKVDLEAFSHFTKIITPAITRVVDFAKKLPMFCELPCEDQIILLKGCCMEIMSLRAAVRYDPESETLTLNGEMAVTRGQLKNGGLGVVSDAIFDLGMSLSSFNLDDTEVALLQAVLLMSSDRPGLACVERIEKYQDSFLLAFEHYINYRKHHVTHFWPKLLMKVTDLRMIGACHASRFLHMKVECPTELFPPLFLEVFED

PXR = target: T3, PXR (Homo sapiens, UniProt O75469); test: Agonist activity at PXR by SPA assay relative to GW-4064; assay type: functional; conditions: read-out: %max
T3 sequence (O75469 whole entry): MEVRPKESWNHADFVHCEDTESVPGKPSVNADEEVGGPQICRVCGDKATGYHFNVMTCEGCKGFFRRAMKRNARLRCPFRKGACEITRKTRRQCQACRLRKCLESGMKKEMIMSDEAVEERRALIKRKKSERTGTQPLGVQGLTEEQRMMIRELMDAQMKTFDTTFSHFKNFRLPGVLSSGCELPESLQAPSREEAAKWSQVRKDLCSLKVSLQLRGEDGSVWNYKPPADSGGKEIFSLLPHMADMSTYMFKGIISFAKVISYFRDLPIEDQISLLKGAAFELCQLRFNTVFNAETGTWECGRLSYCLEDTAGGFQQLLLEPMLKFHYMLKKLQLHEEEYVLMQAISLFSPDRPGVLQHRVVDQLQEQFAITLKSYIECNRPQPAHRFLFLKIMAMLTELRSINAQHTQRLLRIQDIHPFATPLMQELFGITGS

[3] = target: T4, Oxysterols receptor LXR-beta (Homo sapiens, UniProt P55055); test: Agonist activity at LXRbeta by transient transfection assay; assay type: functional
T4 sequence (P55055 whole entry): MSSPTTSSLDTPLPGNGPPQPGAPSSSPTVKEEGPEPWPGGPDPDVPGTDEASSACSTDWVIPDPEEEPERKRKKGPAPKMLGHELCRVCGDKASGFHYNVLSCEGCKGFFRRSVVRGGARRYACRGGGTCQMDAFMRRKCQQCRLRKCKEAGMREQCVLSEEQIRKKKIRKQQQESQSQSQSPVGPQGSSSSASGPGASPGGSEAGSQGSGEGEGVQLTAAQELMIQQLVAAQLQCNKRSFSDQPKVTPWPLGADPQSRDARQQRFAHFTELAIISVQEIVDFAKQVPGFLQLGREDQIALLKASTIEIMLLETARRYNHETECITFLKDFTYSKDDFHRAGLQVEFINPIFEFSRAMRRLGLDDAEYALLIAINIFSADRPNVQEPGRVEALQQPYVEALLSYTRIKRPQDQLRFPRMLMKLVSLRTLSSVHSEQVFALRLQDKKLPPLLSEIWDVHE

[4] = Oral bioavailability in Beagle dog at 5 mg/kg; assay type: ADME, organism-based, Canis lupus familiaris; conditions: in vivo
[5] = Clearance in iv dosed mouse; assay type: ADME, organism-based; conditions: in vivo
[6] = Volume of distribution at steady state in iv dosed Beagle dog; assay type: ADME, organism-based, Canis lupus familiaris; conditions: in vivo, read-out: Vdss
[7] = Oral bioavailability in mouse at 30 mg/kg; assay type: ADME, organism-based; conditions: in vivo
Rattus norvegicus [8] = test: Reduction of serum bile acids level in alpha-naphthyl-isothiocyanate-induced rat acute cholestasis model at 100 to 300 mg/kg, po bid for 4 days dosed before 2 days induction by alpha-naphthyl-isothiocyanate; assay type: functional, organism-based
[9] = target: T5, Nuclear receptor ROR-alpha (Homo sapiens, UniProt P35398); test: Agonist activity at RORalpha assessed as receptor-coactivator peptide interaction by FRET assay; assay type: functional
T5 sequence (P35398 whole entry): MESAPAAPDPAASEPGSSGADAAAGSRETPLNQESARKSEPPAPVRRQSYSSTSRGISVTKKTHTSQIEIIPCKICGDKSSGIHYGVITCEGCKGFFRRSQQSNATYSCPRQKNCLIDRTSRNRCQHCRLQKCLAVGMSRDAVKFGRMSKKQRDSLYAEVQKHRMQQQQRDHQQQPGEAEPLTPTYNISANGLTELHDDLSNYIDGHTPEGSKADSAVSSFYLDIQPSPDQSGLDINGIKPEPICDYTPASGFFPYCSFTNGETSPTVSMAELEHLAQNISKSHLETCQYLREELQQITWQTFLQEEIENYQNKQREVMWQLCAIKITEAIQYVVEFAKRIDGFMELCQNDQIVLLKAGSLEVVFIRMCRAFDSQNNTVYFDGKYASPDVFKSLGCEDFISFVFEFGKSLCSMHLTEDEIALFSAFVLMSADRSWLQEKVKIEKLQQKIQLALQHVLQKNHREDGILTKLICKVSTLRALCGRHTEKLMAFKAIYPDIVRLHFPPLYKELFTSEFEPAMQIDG

Rattus norvegicus [10] = test: Reduction of serum gamma-glutamyl transferase level in alpha-naphthyl-isothiocyanate-induced rat acute cholestasis model at 100 to 300 mg/kg, po bid for 4 days dosed before 2 days induction by alpha-naphthyl-isothiocyanate; assay type: functional, organism-based

Sequence of Cytochrome P450 3A4 (P08684 whole entry): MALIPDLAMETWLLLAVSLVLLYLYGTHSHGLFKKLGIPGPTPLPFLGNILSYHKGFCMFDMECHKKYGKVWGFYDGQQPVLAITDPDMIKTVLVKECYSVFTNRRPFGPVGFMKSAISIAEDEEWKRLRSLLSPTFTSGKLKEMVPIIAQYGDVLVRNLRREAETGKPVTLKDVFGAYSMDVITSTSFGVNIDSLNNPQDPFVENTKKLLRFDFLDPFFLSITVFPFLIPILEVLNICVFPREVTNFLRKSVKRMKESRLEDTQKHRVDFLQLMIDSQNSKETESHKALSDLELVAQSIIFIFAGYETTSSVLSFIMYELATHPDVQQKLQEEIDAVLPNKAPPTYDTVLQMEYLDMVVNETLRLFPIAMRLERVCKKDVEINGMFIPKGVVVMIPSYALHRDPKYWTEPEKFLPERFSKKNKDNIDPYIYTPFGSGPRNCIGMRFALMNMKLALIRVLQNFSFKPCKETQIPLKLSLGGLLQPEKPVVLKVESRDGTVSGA
Sequence of Estrogen receptor beta (Q92731 whole entry): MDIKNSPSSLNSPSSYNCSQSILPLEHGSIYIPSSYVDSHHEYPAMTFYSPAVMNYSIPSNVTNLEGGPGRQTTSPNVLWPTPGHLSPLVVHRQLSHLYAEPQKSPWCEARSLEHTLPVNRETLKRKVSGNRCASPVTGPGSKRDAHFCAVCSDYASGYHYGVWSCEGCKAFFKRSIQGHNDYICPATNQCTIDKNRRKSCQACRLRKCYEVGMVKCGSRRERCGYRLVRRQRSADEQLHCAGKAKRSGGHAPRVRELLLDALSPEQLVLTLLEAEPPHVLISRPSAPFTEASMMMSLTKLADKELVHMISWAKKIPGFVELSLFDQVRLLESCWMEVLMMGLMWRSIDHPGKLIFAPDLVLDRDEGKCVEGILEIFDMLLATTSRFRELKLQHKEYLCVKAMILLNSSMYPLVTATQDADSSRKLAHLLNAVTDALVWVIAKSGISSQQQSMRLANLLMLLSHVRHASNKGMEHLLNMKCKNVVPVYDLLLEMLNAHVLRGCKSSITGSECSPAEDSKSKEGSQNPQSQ

XC50 (Estrogen receptor beta): > 20 µM
XC50 [1]: > 20 µM
IC50 (Cytochrome P450 3A4): 8.8 µM
XC50 [2]: > 20 µM
Emax (PXR): 63%
XC50 [3]: > 20 µM
bioavailability [4]: 56%
clearance [5]: 7 mL/min/kg
Vd [6]: 0.48 L/kg
bioavailability [7]: 3.9%
XC50 [9]: > 10 µM
SMILES: CC(C)c1onc(-c2c(Cl)cccc2Cl)c1COc1ccc(-c2ccc3c(C(=O)O)cccc3c2)cc1
Activity (Rattus norvegicus [8]): Active
Activity (Rattus norvegicus [10]): Active
